Experimental data published in patent US8071584B2 (GlaxoSmithKline LLC, priority 2007, dated 2011).

Tested on: human monocyte stimulated cytokine production (TNF-α)
Assay: Monocyte assay (LPS-stimulated TNF-α production)
Format: cell-based
Settings: for IC50: human CD14+ monocytes, 200 ng/mL LPS, 24 hrs, values given as 'about', read-out: pIC50 in the monocyte assay (converted); for inhibition at 0.3 µM: 300 nM, human monocytes, LPS
Description: Effect of IKK-β inhibition on human monocyte stimulated cytokine production was assessed as follows: Monocytes were isolated from heparinized whole blood by Ficoll gradient, followed by purification of CD14+ cells using MACS magnetic cell separation beads. Isolated monocytes were then adhered to 96-well culture plates at 1×10^6 cells/mL in RPMI 1640 10% FBS (JRH Biosciences, Lenexa Kans.) for 2 h. Test compounds are added to the wells 30 minutes prior to stimulation with a final vehicle concentration of 0.1% DMSO. Monocytes were activated by the addition of 200 ng/mL endotoxin (LPS; E. coli serotype 026:B6) (Sigma, St. Louis, Mo.) and incubated for 24 hrs at 37 C. Cell-free supernates were analyzed by Alphascreen™ (Perkin Elmer, Waltham, Mass.) for TNF-α using R&D Systems matched pair Abs. Viability of the cells was determined by 10% trypan blue exclusion.

Question: With `NC(=O)c1cc(-c2ccccc2)c(F)c2c(C3CCS(=O)(=O)CC3)c[nH]c12` [Example 169, 3-(1,1-Dioxidotetrahydro-2H-thiopyran-4-yl)-4-fluoro-5-phenyl-1H-indole-7-carboxamide] as the molecule, how does the IC50 read?
Answer: 5.01 to 1000 nM

Question: How did the IC50 turn out when `NC(=O)c1cc(-c2csc(CN3CCCCCC3)c2)cc2c(C3CCS(=O)(=O)CC3)c[nH]c12` [Example 72, 3-(1,1-Dioxidotetrahydro-2H-thiopyran-4-yl)-5-[5-(hexahydro-1H-azepin-1-ylmethyl)-3-thienyl]-1H-indole-7-carboxamide] was run?
Answer: 5.01 to 1000 nM

Question: With `NC(=O)c1cc(-c2ccsc2)c(F)c2c(C3CCS(=O)(=O)CC3)c[nH]c12` [Example 170, 3-(1,1-Dioxidotetrahydro-2H-thiopyran-4-yl)-4-fluoro-5-(3-thienyl)-1H-indole-7-carboxamide] as the molecule, how does the IC50 read?
Answer: 5.01 to 1000 nM

Question: Which IC50 does the source give for `NC(=O)c1cc(-c2ccc3[nH]ncc3c2)cc2c(C3CCS(=O)(=O)CC3)c[nH]c12` [Example 82, 3-(1,1-Dioxidotetrahydro-2H-thiopyran-4-yl)-5-(1H-indazol-5-yl)-1H-indole-7-carboxamide] here?
Answer: 5.01 to 1000 nM

Question: `CNCc1cccc(-c2cc(C(N)=O)c3[nH]cc(C4CCS(=O)(=O)CC4)c3c2)c1` [Example 78, 3-(1,1-Dioxidotetrahydro-2H-thiopyran-4-yl)-5-{3-[(methylamino)methyl]phenyl}-1H-indole-7-carboxamide] was tested. Which IC50 did it give?
Answer: 5.01 to 1000 nM

Question: Which IC50 does the source give for `CN(C)Cc1cc(-c2cc(C(N)=O)c3[nH]cc(C4CCS(=O)(=O)CC4)c3c2)cs1` [Example 73, 5-{5-[(Dimethylamino)methyl]-3-thienyl}-3-(1,1-dioxidotetrahydro-2H-thiopyran-4-yl)-1H-indole-7-carboxamide] here?
Answer: 5.01 to 1000 nM

Question: `NC(=O)c1cc(-c2cccs2)cc2c(C3CCCS(=O)(=O)C3)c[nH]c12` (centres unmarked) [Example 222, 3-(1,1-Dioxidotetrahydro-2H-thiopyran-3-yl)-5-(2-thienyl)-1H-indole-7-carboxamide] was tested. Which inhibition at 0.3 µM did it give?
Answer: 0 to 100%

Question: For `NC(=O)c1cc(-c2csc(CN3CCC3)c2)cc2c(C3CCS(=O)(=O)CC3)c[nH]c12` [Example 70, 5-[5-(1-Azetidinylmethyl)-3-thienyl]-3-(1,1-dioxidotetrahydro-2H-thiopyran-4-yl)-1H-indole-7-carboxamide], which inhibition at 0.3 µM is on record?
Answer: 0 to 100%

Question: For `NC(=O)c1cc(-c2csc(CN3CCC3)c2)cc2c(C3CC4CCC(C3)S4(=O)=O)c[nH]c12` (stereo not drawn) [Example 204, 3-[(3-endo)-8,8-Dioxido-8-thiabicyclo[3.2.1]oct-3-yl]-5-[5-(1-azetidinylmethyl)-3-thienyl]-1H-indole-7-carboxamide], which inhibition at 0.3 µM is on record?
Answer: 0 to 100%

Question: `CC(C)N(C)Cc1cc(-c2cc(C(N)=O)c3[nH]cc(C4CCS(=O)(=O)CC4)c3c2)cs1` [Example 74, 3-(1,1-Dioxidotetrahydro-2H-thiopyran-4-yl)-5-(5-{[methyl(1-methylethyl)amino]methyl}-3-thienyl)-1H-indole-7-carboxamide] was tested. Which IC50 did it give?
Answer: 5.01 to 1000 nM

Question: How did the inhibition at 0.3 µM turn out when `NC(=O)c1cc(-c2ccccc2)cc2c(C3CC4CCC(C3)S4(=O)=O)c[nH]c12` (stereo not drawn) [Example 192, 3-[(3-endo)-8,8-Dioxido-8-thiabicyclo[3.2.1]oct-3-yl]-5-phenyl-1H-indole-7-carboxamide] was run?
Answer: 0 to 100%

Question: For `NC(=O)c1cc(-c2csc(CN3CCCC3)c2)cc2c(C3CCS(=O)(=O)C3)c[nH]c12` (centres unmarked) [Example 187, 3-(1,1-Dioxidotetrahydro-3-thienyl)-5-[5-(1-pyrrolidinylmethyl)-3-thienyl]-1H-indole-7-carboxamide], which IC50 is on record?
Answer: 5.01 to 1000 nM

Question: How did the IC50 turn out when `NC(=O)c1cc(-c2ccoc2)cc2c(CC3CCS(=O)(=O)CC3)c[nH]c12` [Example 253, 3-[(1,1-dioxidotetrahydro-2H-thiopyran-4-yl)methyl]-5-(3-furanyl)-1H-indole-7-carboxamide] was run?
Answer: 5.01 to 1000 nM

Question: With `NC(=O)c1cc(-c2ccco2)cc2c([C@H]3CCS(=O)(=O)[C@@H](c4ccccc4)C3)c[nH]c12` (racemic) [Example 251, 3-(1,1-Dioxido-2-phenyltetrahydro-2H-thiopyran-4-yl)-5-(2-furanyl)-1H-indole-7-carboxamide] as the molecule, how does the IC50 read?
Answer: 5.01 to 1000 nM

Question: `CN(CCOC(C)(C)C)Cc1cc(-c2cc(C(N)=O)c3[nH]cc(C4CCS(=O)(=O)CC4)c3c2)cs1` [Example 77, 5-(5-{[{2-[(1,1-Dimethylethyl)oxy]ethyl}(methyl)amino]methyl}-3-thienyl)-3-(1,1-dioxidotetrahydro-2H-thiopyran-4-yl)-1H-indole-7-carboxamide] was tested. Which inhibition at 0.3 µM did it give?
Answer: 0 to 100%

Question: With `NC(=O)c1cc(-c2ccco2)cc2c(C3CCS(=O)(=O)C3)c[nH]c12` (centres unmarked) [Example 188, 3-(1,1-Dioxidotetrahydro-3-thienyl)-5-(2-furanyl)-1H-indole-7-carboxamide] as the molecule, how does the IC50 read?
Answer: 5.01 to 1000 nM

Question: `CC1(C)C[C@@H](c2c[nH]c3c(C(N)=O)cc(-c4ccc(F)cc4)cc23)CCS1(=O)=O` [Example 224, 3-[(4S)-2,2-Dimethyl-1,1-dioxidotetrahydro-2H-thiopyran-4-yl]-5-(4-fluorophenyl)-1H-indole-7-carboxamide] was tested. Which IC50 did it give?
Answer: > 1000 nM

Question: Which IC50 does the source give for `CC1(C)CC(c2c[nH]c3c(C(N)=O)cc(-c4ccsc4)cc23)CCS1(=O)=O` (centres unmarked) [Example 227, 3-(2,2-Dimethyl-1,1-dioxidotetrahydro-2H-thiopyran-4-yl)-5-(3-thienyl)-1H-indole-7-carboxamide] here?
Answer: 5.01 to 1000 nM

Question: `CC(C)[C@H]1CC(c2c[nH]c3c(C(N)=O)cc(-c4ccoc4)cc23)CCS1(=O)=O` (mixture of isomers) [Example 243, (mixture of isomers)-5-(3-Furanyl)-3-[trans-2-(1-methylethyl)-1,1-dioxidotetrahydro-2H-thiopyran-4-yl]-1H-indole-7-carboxamide] was tested. Which inhibition at 0.3 µM did it give?
Answer: 0 to 100%

Question: `N#CCc1ccc(-c2cc(C(N)=O)c3[nH]cc(C4CCS(=O)(=O)CC4)c3c2)cc1` [Example 65, 5-[4-(Cyanomethyl)phenyl]-3-(1,1-dioxidotetrahydro-2H-thiopyran-4-yl)-1H-indole-7-carboxamide] was tested. Which IC50 did it give?
Answer: 5.01 to 1000 nM
